Assay results taken from ChEMBL document CHEMBL1201862, “PubChem BioAssay data set” (2004).
Activity calls are given as the source filed them.

Legend:
CHO = experiment: cytotoxicity in TLR9-MyD88 CHO cells, dose response, cytotoxicity control for TLR9-MyD88 binding inhibitor project, cell-based, luminescence (AID 588339); assay type: functional, hamster; details: Cricetulus griseus;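 also: CHO cells stably coexpressing TLR9 and MyD88 fusions from primary screen; compound exposure lasted 48 hours before viability readout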
Beta Lactamase = Beta Lactamase (Pseudomonas aeruginosa, UniProt Q932Y6); experiment: beta-lactamase reporter inhibitor potency, dose response, artefact control for TLR9-MyD88 binding inhibitor project, BLA reporter cells, FRET fluorescence (AID 588341); assay type: cell-based;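 also: cell based assay in CHO-K1 cells stably expressing beta-lactamase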
BJ [1] = experiment: cytotoxicity toward BJ-TERT fibroblasts, dose response, cell-based, RAS-independent, luminescence (AID 1933); assay type: functional; details: Homo sapiens
BJ [2] = experiment: cells; assay type: functional, cell-based; details: Homo sapiens
[3] = inhibitors of intracellular T. cruzi replication, confirmation, NIH3T3 host cells, beta-gal luminescence (AID 2044); assay type: functional, cell-based;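 also: intracellular parasites grown in NIH/3T3 mouse fibroblasts as host cells; luminescent beta-galactosidase reporter signal from transgenic T. cruzi replicating inside host cells; inhibitors lower the luminescence signal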
[4] = cytotoxicity toward NIH3T3 fibroblasts, dose response, counter-screen, cell-based, ATP luminescence, mouse fibroblasts (AID 2010); assay type: functional;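 also: cells exposed to compound for about 90 hours before reading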
BJ [5] = experiment: cytotoxicity toward BJ-TERT-LT-ST fibroblasts, dose response, cell-based, RAS-independent, luminescence (AID 1935); assay type: functional; details: Homo sapiens;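 also: BJ fibroblasts immortalized with TERT plus LT and ST oncogenes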
[6] = cytotoxicity toward DRD oncogenic fibroblasts, dose response, cell-based, non-viral oncogenic, luminescence (AID 1934); assay type: functional; details: Homo sapiens
[7] = Luminescence Cell-Based Dose Retest to Confirm Inhibitors of Cancer Stem Cells. [Related pubchem assays (depositor defined):AID2717, AID2721]; assay type: functional; details: Homo sapiens
[8] = cytotoxicity in HMLE control line with eGFP shRNA, dose response, counter-screen for HMLE_sh_ECad selective toxicity project, cell-based, HMLE_sh_eGFP, luminescence (AID 463074); assay type: functional, Homo sapiens;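 also: HMLE human mammary epithelial cells expressing control shRNA against eGFP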
[9] = target: UDP-galactopyranose mutase (Mycobacterium tuberculosis, UniProt P9WIQ1); experiment: Inhibitors of Mycobacterium tuberculosis UDP-galactopyranose mutase (UGM) enzyme Measured in Biochemical System Using Plate Reader - 2105-02_Inhibitor_Dose_CherryPick_Activity. [Related pubchem assays (depositor defined):AID504439]
[10] = inhibitors of Trypanosoma cruzi host-cell infection, confirmation, beta-gal luminescence, NIH3T3 host cells (AID 2630); assay type: functional, cell-based; details: Mus musculus
Candida albicans [11] = experiment: growth inhibition of resistant C. albicans, dose response, CaCi-8 strain, fluconazole, dry powder, set 4 (AID 488950); assay type: functional, organism-based
Candida albicans [12] = experiment: growth inhibition of azole-resistant C. albicans, dose response, CaCi-8 strain, Alamar Blue, dry powder, set 2 (AID 488909); assay type: functional, organism-based
HEK293 = experiment: cytotoxicity in HEK293T NF-kB-Luc cells, SAR follow-up, cytotoxicity control for NF-kB activator project, cell-based, resazurin fluorescence (AID 493251); assay type: functional; details: Homo sapiens
[13] = target: T1, sn-1-specific diacylglycerol lipase ABHD11 (Mus musculus, UniProt Q8K4F5); experiment: Late stage assay provider results from the probe development effort to identify inhibitors of LYPLA1: fluorescence-based cell-based gel-based Activity-Based Protein Profiling (ABPP) IC50 for anti-target ABHD11. [Related pubchem assays (depositor defined):AID2174, AID2177, AID2202, AID2203, AID2232, AID2233, AID493105, AID493108, AID493109, AID493110, AID493111, AID493154, AID493161, AID504892]; assay type: functional
[14] = target: T1, sn-1-specific diacylglycerol lipase ABHD11; experiment: Late stage assay provider results from the probe development effort to identify inhibitors of LYPLA1 and LYPLA2: Gel-based Activity-Based Protein Profiling (ABPP) IC50 for off-target ABHD11. [Related pubchem assays (depositor defined):AID2174, AID2202, AID2203, AID2233, AID504482, AID504498, AID504505, AID504507, AID504510, AID504520, AID504522, AID504892]; assay type: functional
[15] = target: Voltage-gated inwardly rectifying potassium channel KCNH2 (Homo sapiens, UniProt Q12809); details: Potency;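 also: confirmatory quantitative high-throughput screen measuring inhibition of hERG channel activity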
Chain of Voltage-gated inwardly rectifying potassium channel KCNH2 (Q12809 whole entry): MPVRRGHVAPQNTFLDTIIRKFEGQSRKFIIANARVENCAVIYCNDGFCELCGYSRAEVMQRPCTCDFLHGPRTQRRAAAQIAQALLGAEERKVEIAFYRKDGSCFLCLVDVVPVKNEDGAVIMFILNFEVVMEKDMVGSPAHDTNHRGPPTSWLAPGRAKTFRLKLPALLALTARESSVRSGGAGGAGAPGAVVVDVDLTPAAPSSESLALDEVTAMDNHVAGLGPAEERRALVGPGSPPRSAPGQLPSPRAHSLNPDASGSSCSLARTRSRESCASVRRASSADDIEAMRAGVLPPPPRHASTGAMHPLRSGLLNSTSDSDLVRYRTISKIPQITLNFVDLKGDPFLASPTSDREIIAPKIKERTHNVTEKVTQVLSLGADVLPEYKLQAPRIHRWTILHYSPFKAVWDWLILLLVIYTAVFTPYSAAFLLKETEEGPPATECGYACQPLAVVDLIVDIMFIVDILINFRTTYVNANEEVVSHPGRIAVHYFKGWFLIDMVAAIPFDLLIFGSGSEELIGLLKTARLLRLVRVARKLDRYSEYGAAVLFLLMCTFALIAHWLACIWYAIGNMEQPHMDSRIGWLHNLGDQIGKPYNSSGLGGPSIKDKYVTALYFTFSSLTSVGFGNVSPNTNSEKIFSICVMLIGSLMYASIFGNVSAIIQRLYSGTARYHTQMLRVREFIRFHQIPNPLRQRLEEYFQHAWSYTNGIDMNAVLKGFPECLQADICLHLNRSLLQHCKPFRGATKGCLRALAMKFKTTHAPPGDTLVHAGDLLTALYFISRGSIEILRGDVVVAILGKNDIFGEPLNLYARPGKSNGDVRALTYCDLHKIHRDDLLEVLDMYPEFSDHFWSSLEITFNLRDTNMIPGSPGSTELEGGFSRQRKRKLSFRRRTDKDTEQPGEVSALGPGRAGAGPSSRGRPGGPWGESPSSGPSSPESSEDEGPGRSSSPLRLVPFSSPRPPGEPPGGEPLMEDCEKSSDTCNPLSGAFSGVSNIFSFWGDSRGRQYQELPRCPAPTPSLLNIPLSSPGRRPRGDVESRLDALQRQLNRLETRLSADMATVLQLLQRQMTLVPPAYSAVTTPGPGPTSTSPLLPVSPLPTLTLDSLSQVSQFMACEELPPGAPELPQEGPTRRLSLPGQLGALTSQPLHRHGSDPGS

T1 sequence (Q8K4F5 whole entry): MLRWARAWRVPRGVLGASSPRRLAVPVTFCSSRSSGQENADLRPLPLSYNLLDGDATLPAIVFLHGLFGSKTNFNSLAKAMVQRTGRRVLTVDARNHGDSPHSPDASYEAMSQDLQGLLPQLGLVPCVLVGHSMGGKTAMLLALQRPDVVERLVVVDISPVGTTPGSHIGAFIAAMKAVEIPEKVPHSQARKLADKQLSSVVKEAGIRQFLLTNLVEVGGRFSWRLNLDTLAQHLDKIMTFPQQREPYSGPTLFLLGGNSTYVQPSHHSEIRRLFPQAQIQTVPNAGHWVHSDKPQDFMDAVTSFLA
Chain of UDP-galactopyranose mutase (P9WIQ1 whole entry): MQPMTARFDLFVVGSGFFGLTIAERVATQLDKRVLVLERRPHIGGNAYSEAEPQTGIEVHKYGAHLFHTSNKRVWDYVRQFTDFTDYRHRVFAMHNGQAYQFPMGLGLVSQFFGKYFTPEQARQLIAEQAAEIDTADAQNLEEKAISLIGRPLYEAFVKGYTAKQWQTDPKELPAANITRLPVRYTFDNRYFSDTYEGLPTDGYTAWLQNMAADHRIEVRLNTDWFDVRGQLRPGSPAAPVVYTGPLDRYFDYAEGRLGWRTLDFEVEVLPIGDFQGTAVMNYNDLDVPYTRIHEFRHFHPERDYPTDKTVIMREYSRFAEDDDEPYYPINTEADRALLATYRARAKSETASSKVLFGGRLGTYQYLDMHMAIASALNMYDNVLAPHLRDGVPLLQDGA
Chain of Beta Lactamase (Q932Y6 whole entry): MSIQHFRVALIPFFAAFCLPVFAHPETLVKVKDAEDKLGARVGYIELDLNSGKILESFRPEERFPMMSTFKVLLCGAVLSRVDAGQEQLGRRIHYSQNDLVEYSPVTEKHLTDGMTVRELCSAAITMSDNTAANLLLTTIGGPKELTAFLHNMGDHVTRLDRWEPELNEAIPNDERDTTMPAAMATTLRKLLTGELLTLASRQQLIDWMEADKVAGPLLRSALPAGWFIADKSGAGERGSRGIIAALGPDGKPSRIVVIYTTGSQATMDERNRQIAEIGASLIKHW

SMILES: Cc1nn(C)c(C)c1N1C(=O)c2cccc3c(Br)ccc(c23)C1=O
- IC50 (CHO): 7.3 µM (active)
- IC50 (Beta Lactamase): 5.72 µM (active)

SMILES: CN1CCN(c2ccc(C(=O)c3ccccc3)cc2[N+](=O)[O-])CC1
- EC50 (BJ [1]): > 150 µM (not active)
- EC50 (BJ [2]): > 150 µM (not active)
- EC50 [3]: 0.399 µM (active)
- EC50 [4]: > 60 µM (not active)
- EC50 (BJ [5]): > 150 µM (inconclusive)
- EC50 [6]: > 150 µM (not active)
- AC50 [7]: 2.09 µM (active)
- AC50 [8]: 77.6 µM (active)

SMILES: O=C(COC(=O)c1ccc([N+](=O)[O-])o1)NC1CCCC1
- AC50 [9]: > 500 µM (inactive)

SMILES: Cc1ccc(NC(=O)CCC(=O)N/N=C/c2ccc(C)o2)c(C)c1
- EC50 [10]: 195 µM (inactive)

SMILES: O=C(c1ccc(Cl)cc1)N1CCCN(c2ccnc3cc(Cl)ccc23)CC1
- AC50 (Candida albicans [11]): 12.7 µM (active)
- AC50 (Candida albicans [12]): < 0.195 µM (active)

SMILES: Cc1oc(-c2ccccc2)nc1CSCC(=O)NCc1ccco1
- IC50 (HEK293): > 80 µM (inactive)

SMILES: CCC1CCCCN1C(=O)n1ncc(C(O)(c2ccccc2)c2ccccc2)n1 (stereo not drawn)
- IC50 [13]: 0.000678 µM (active)
- IC50 [14]: 0.015 µM (active)

SMILES: C(=C/c1ccccc1)/c1ccccc1
- AC50 [15]: 22.4 µM (inconclusive)
